Consider 33 compounds from ChEMBL document CHEMBL1152400, “Tetrahydrocarbazole amides with potent activity against human papillomaviruses” (Bioorg Med Chem Lett, 2009).

pIC50: −log10 of the molar value.

One data set concerns the target Cytochrome P450 2D6 (Homo sapiens, UniProt P10635). The experiment in a line: Inhibition of CYP2D6. The class given is ADME.
The nature of data set [1]: Cytotoxicity against HFF cells. In kind it is cell-based. As to conditions: human.
The test system of data set [2] is Human papillomavirus type 16. The experiment in a line: Antiviral activity against Human papillomavirus 16 infected in human W12-20850 cells by hybrid capture method. As to conditions: Human papillomavirus 16, W12-20850. In kind it is functional, organism-based.
Data set [3] has as its target Voltage-gated inwardly rectifying potassium channel KCNH2 (Homo sapiens, UniProt Q12809).
A short description of data set [4]: Oral bioavailability in monkey at 5 mg/kg. In kind it is ADME, organism-based, Macaca mulatta. The following applies: rhesus monkey, in vivo.
A short description of data set [5]: Volume of distribution at steady state in rat at 2 mg/kg, iv. The following applies: in vivo, read-out: Vdss. The class given is ADME, organism-based. Set-up: dose 2 mg/kg, route intravenous.
A short description of data set [6]: Half life in dog at 5 mg/kg. In kind it is ADME, organism-based, Canis lupus familiaris. Also on record: dose 5 mg/kg. The following applies: in vivo.
Data set [7] is described as follows: Half life in monkey at 5 mg/kg. In kind it is ADME, organism-based, Macaca mulatta. Also on record: dose 5 mg/kg. The following applies: rhesus monkey, in vivo.
A short description of data set [8]: Clearance in rat at 2 mg/kg, iv. The following applies: in vivo. In kind it is ADME, organism-based. Also on record: dose 2 mg/kg, route intravenous.
Data set [9] in a line: Volume of distribution at steady state in monkey at 2 mg/kg, iv. The class given is ADME, organism-based, Macaca mulatta. Set-up: dose 2 mg/kg, route intravenous. As to conditions: rhesus monkey, in vivo, read-out: Vdss.
Data set [10] is described as follows: Oral bioavailability in dog at 5 mg/kg. The class given is ADME, organism-based, Canis lupus familiaris. The following applies: in vivo.
Data set [11] can be described thus: Volume of distribution at steady state in dog at 2 mg/kg, iv. In kind it is ADME, organism-based, Canis lupus familiaris. Also on record: dose 2 mg/kg, route intravenous. The following applies: in vivo, read-out: Vdss.
The nature of data set [12]: Oral bioavailability in rat at 10 mg/kg. The class given is ADME, organism-based. As to conditions: in vivo.
A short description of data set [13]: Half life in rat at 10 mg/kg. In kind it is ADME, organism-based. Also on record: dose 10 mg/kg. As to conditions: in vivo.
Data set [14] can be described thus: Clearance in dog at 2 mg/kg, iv. The class given is ADME, organism-based, Canis lupus familiaris. Also on record: dose 2 mg/kg, route intravenous. As to conditions: in vivo.
Data set [15] is described as follows: Clearance in monkey at 2 mg/kg, iv. In kind it is ADME, organism-based, Macaca mulatta. Also on record: dose 2 mg/kg, route intravenous. The following applies: rhesus monkey, in vivo.
Data set [16] can be described thus: Bioavailability in rat. As to conditions: in vivo. In kind it is ADME, organism-based.

Cytochrome P450 2D6, sequence (P10635 whole entry): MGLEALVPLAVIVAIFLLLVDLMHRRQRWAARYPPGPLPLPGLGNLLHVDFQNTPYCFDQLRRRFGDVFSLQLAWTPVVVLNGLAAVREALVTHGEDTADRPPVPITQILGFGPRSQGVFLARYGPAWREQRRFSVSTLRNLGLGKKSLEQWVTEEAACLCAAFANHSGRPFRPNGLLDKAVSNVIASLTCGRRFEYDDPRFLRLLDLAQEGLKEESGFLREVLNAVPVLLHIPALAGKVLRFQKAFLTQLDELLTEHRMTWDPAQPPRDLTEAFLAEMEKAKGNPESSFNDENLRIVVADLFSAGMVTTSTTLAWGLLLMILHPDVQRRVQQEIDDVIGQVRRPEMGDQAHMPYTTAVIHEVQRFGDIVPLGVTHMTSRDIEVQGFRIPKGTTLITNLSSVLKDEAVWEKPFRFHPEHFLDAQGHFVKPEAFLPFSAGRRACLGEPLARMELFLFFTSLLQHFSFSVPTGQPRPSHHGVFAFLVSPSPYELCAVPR
Voltage-gated inwardly rectifying potassium channel KCNH2, sequence (Q12809 whole entry): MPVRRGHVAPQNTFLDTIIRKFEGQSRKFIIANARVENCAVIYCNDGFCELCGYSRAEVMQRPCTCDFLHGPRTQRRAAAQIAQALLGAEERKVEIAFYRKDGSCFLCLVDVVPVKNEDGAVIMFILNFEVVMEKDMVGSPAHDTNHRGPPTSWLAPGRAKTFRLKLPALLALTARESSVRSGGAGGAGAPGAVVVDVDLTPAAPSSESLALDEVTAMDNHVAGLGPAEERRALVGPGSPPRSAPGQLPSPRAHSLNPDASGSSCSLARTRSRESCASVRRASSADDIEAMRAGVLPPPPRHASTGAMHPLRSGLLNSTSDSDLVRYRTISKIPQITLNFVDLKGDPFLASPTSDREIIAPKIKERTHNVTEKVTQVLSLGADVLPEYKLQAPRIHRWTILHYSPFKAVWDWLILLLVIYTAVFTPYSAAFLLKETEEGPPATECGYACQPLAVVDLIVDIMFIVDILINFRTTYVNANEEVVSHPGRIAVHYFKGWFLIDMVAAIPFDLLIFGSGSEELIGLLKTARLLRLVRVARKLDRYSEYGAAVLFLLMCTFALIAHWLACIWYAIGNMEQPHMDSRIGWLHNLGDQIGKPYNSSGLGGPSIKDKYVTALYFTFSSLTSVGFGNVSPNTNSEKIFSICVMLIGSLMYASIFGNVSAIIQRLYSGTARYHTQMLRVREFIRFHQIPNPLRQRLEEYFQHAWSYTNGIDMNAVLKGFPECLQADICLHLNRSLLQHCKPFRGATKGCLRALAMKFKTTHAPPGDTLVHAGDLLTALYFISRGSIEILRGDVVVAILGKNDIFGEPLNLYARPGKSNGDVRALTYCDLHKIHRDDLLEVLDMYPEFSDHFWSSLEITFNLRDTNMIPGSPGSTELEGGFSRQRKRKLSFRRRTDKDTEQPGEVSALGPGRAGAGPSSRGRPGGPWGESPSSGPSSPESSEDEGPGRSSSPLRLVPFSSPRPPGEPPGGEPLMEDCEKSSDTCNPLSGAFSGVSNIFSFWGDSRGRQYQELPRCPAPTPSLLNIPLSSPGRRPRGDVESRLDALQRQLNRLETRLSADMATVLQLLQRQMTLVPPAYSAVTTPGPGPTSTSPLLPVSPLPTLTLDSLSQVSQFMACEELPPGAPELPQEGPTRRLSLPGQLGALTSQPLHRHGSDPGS

`C[C@@H](N[C@@H]1CCCc2c1[nH]c1ccc(Br)cc21)c1ccccc1`: at Cytochrome P450 2D6, the negative-log IC50 (pIC50) is 6.80.
In [1], `O=C(NC1CCCc2c1[nH]c1ccc(Br)cc21)c1ccccc1` (stereo not given) displayed a CC50 of over 20 µM. The pIC50 in data set [2] was 7.52.
In data set [1], `O=C(NC1CCCc2c1[nH]c1ccc(Br)cc21)OCc1ccccc1` (stereo not given) displayed a cytotoxic concentration (CC50) of over 20 µM. This compound also gave a negative logarithm of the IC50 (pIC50) in data set [2] of 7.35.
As to `O=C(N[C@@H]1CCCc2c1[nH]c1ccc(Cl)cc21)c1ccccc1`, the cytotoxic concentration (CC50) in data set [1] is 26 µM. Besides, the negative logarithm of the IC50 (pIC50) in data set [2] is 7.70.
For `O=C(N[C@@H]1CCCc2c1[nH]c1ccc(Cl)cc21)c1ccccc1F`, it took 24 µM to reach half-maximal cytotoxicity in [1] (CC50). Further, the negative logarithm of the IC50 (pIC50) in data set [3] was under 4.70; against Cytochrome P450 2D6 it was under 4.70; in data set [2], 8.10.
`O=C(N[C@H]1CCCc2c1[nH]c1ccc(Br)cc21)c1ccccc1` gave a half-maximal cytotoxic concentration (CC50) in data set [1] of 52 µM. The compound also had a negative-log IC50 (pIC50) in [2] of 5.24.
In the case of `O=C(N[C@@H]1CCCc2c1[nH]c1ccc(Cl)cc21)c1ccccn1`, the bioavailability came to 56% in data set [4], 35% in data set [10] and 56% in data set [12]. For the same compound, the CC50 in data set [1] came to 16 µM. In addition, the Vd stood at 1.6 L/kg in data set [5], 0.13 L/kg in data set [9] and 1.7 L/kg in data set [11]. Besides, the half-life was 9.5 h in data set [6], 3.6 h in data set [7] and 4.1 h in data set [13]. Besides, the clearance in data set [8] was 13.1 mL/min/kg; in data set [14], 5 mL/min/kg; in [15] it was 1.1 mL/min/kg. This compound also gave a pIC50 in data set [2] of 8.30.
In data set [1], `Brc1ccc2[nH]c3c(c2c1)CCCC3Nc1ccccc1` (stereo not given) gave a CC50 of 50.8 µM. The same compound showed a pIC50 in data set [2] of 8.00. Further, in data set [16], the bioavailability was under 5%.
In the case of `O=C(NC1CCCc2c1[nH]c1ccc(Br)cc21)C1CCCCC1` (stereo not given), in data set [1], it took 50 µM to reach half-maximal cytotoxicity (CC50). In data set [2], the pIC50 is 6.40.
`O=C(Cc1ccccc1)NC1CCCc2c1[nH]c1ccc(Br)cc21` (stereo not given) gave a CC50 in [1] of over 50 µM. The pIC50 in data set [2] was 6.24.
For the compound `CS(=O)(=O)NC1CCCc2c1[nH]c1ccc(Br)cc21` (stereo not given), the CC50 in data set [1] is over 50 µM. Further, the negative-log IC50 (pIC50) in [2] was 5.65.
Consider `Cc1ccccc1C(=O)NC1CCCc2c1[nH]c1ccc(Br)cc21` (stereo not given), for which the CC50 in data set [1] worked out at 40 µM. Moreover, the pIC50 in data set [2] was 6.30.
Consider `O=C(N[C@H]1CCCc2c1[nH]c1ccc(Cl)cc21)c1ccccc1`, for which the CC50 in data set [1] came to 55 µM. This compound showed a pIC50 in data set [2] of 4.95.
The like results for `O=C(N[C@@H]1CCCc2c1[nH]c1ccc(Br)cc21)c1ccccc1` were, in that order, 39 µM and 8.10.
Compound `Brc1ccc2[nH]c3c(c2c1)CCCC3Nc1ccccn1` (stereo not given) gave a CC50 in [1] of 20.7 µM. In addition, in [2], the negative logarithm of the IC50 (pIC50) is 7.40.
With `O=C(/C=C/c1ccccc1)NC1CCCc2c1[nH]c1ccc(Br)cc21` (stereo not given), in [1], the half-maximal cytotoxic concentration (CC50) was over 40 µM. Besides, the negative-log IC50 (pIC50) in [2] was 6.49.
In data set [1], `Brc1ccc2[nH]c3c(c2c1)CCCC3Nc1ncccn1` (stereo not given) had a cytotoxic concentration (CC50) of 89.5 µM. This compound also had a negative-log IC50 (pIC50) in data set [2] of 7.05.
In turn, `O=C(CCc1ccccc1)NC1CCCc2c1[nH]c1ccc(Br)cc21` (stereo not given) yielded a CC50 in data set [1] of over 50 µM. The pIC50 in data set [2] was 5.92.
`CC(=O)NC1CCCc2c1[nH]c1ccc(Br)cc21` (stereo not given) showed a 50% cytotoxic concentration (CC50) in data set [1] of over 50 µM. The compound also had a negative-log IC50 (pIC50) in data set [2] of 4.89.
Take `O=C(N[C@H]1CCCc2c1[nH]c1ccc(Cl)cc21)c1ccccc1F`: the midpoint of cytotoxicity in data set [1], the CC50, lay at 36 µM. For the same compound, the negative logarithm of the IC50 (pIC50) in [2] was 5.68.
The like results for `Cc1ccc(S(=O)(=O)NC2CCCc3c2[nH]c2ccc(Br)cc32)cc1` (stereo not given) were, in that order, over 20 µM and 7.62.
Compound `O=C(N[C@H]1CCCc2c1[nH]c1ccc(Cl)cc21)c1ccccn1` gave a CC50 in data set [1] of 61 µM. In addition, in data set [2], the pIC50 was 5.05.
On to `Cc1cccc(C(=O)NC2CCCc3c2[nH]c2ccc(Br)cc32)c1` (racemic), for which the CC50 in data set [1] turned out to be 41 µM. Further, the negative logarithm of the IC50 (pIC50) in [2] was 7.62.
In data set [1], `COc1cccc(C(=O)NC2CCCc3c2[nH]c2ccc(Br)cc32)c1` (racemic) gave a 50% cytotoxic concentration (CC50) of 26 µM. The compound further had a negative logarithm of the IC50 (pIC50) in data set [2] of 7.68.
For the compound `O=C(NC1CCCc2c1[nH]c1ccc(Br)cc21)c1ccccn1` (racemic), the 50% cytotoxic concentration (CC50) in [1] turned out to be 72 µM. Moreover, in data set [2], the pIC50 was 8.30.
In [1], `COc1ccc(C(=O)NC2CCCc3c2[nH]c2ccc(Br)cc32)cc1` (racemic) displayed a 50% cytotoxic concentration (CC50) of 88 µM. The compound further showed a pIC50 in data set [2] of 7.77.
Take `O=C(NC1CCCc2c1[nH]c1ccc(Br)cc21)c1cccnc1` (racemic): the cytotoxic concentration (CC50) in data set [1] was 100 µM. For the same compound, in data set [2], the pIC50 is 6.72.
`Cc1ccc(C(=O)NC2CCCc3c2[nH]c2ccc(Br)cc32)cc1` (racemic) displayed a CC50 in [1] of 87 µM. The compound further gave a pIC50 in data set [2] of 8.00.
`O=C(NC1CCCc2c1[nH]c1ccc(Br)cc21)c1ccc(F)cc1` (racemic) registered a CC50 in data set [1] of 47 µM. Also, the negative logarithm of the IC50 (pIC50) in [2] is 7.36.
In the case of `O=C(NC1CCCc2c1[nH]c1ccc(Br)cc21)c1ccncc1` (racemic), the CC50 in data set [1] came to 100 µM. The compound also gave a pIC50 in data set [2] of 6.70.
In turn, `O=C(NC1CCCc2c1[nH]c1ccc(Br)cc21)c1cccc(F)c1` (racemic) registered a cytotoxic concentration (CC50) in data set [1] of 65 µM. The compound further showed a negative-log IC50 (pIC50) in [2] of 7.74.
The like results for `COc1ccccc1C(=O)NC1CCCc2c1[nH]c1ccc(Br)cc21` (racemic) were, in that order, 100 µM and 4.68.
In [1], `O=C(NC1CCCc2c1[nH]c1ccc(Br)cc21)c1ccccc1F` (racemic) gave a cytotoxic concentration (CC50) of 49 µM. In data set [2], this compound had a pIC50 of 8.10.
